Values after ≈ are worked out from the molar mass of the structure shown. Where two headings read alike, the source gives them in different places.
Columns and labels:
[1] = test system: Klebsiella aerogenes; assay: MIC, broth microdilution, standard strains and Japanese clinical isolates (Example 5, Table 4); type: cell-based; conditions: carbapenemase genes -
[2] = test system: A. baumannii; assay: MIC, broth microdilution, 6 strains (Example 6, Table 7); type: cell-based; conditions: Acinetobacter baumannii, Carbapenem-resistant, read-out: MIC
[3] = test system: Klebsiella pneumoniae; assay: MIC, Gram-negative bacteria clinically isolated in the United States (Example 8, Table 16); type: cell-based; conditions: K. pneumoniae (80 strains) isolated in the United States, Compound A µg/mL in parentheses
[4] = test system: A. baumannii; assay: as above; type: cell-based; conditions: Acinetobacter baumannii; A. baumannii (80 strains) isolated in the United States; Compound A µg/mL in parentheses
[5] = test system: P. aeruginosa; assay: as above; type: cell-based; conditions: Pseudomonas aeruginosa; P. aeruginosa (80 strains) isolated in the United States; Compound A µg/mL in parentheses
[6] = test system: carbapenemase-producing Enterobacteriaceae (CPE); assay: Bactericidal activity by bactericidal curve method (Example 10); type: cell-based, E. coli, Klebsiella pneumoniae; conditions: MEPM ≥1 x MIC; within 1 to 2 hours after culture; all four strains
[7] = test system: K. pneumoniae ATCCBAA-2344 producing KPC-2; assay: Systemic infection lethal mouse model, ED50 (Example 14, Table 31); conditions: 7 days after infection
Method: The test strains on the agar medium were suspended in saline and adjusted to a Klett unit of about 200 using a Klett Photoelectric Colorimeter. […] Male ICR mice were inoculated intraperitoneally with 0.2 mL of the bacterial suspension. Two hours after the inoculation, saline or a solution for administering the agent at each concentration was administered subcutaneously to the mice in a single dose. The number of mice that survived from Day 1 to Day 7 after infection was recorded.

[8] = test system: Acinetobacter baumannii; assay: Systemic infection lethal mouse model, ED50 (Example 15, Table 34); conditions: for ED50: Acinetobacter baumannii, in Mus musculus; for Survival rate: 7 days after infection
Method: The test strains on the agar medium were suspended in saline and adjusted to a Klett unit of about 200 using a Klett Photoelectric Colorimeter. […] Male ICR mice were inoculated intraperitoneally with 0.2 mL of the bacterial suspension. Two hours after the inoculation, saline or a solution for administering the agent of each concentration was administered subcutaneously to the mice in a single dose. The number of mice that survived from Day 1 to Day 7 after infection was recorded.

[9] = test system: carbapenemase-producing Enterobacteriaceae (CPE); assay: MIC in human urine and CAMHB at pH 5.0 to 8.0 (Example 13, Tables 29, 30); conditions: Escherichia coli

With C[C@@H](O)[C@H]1C(=O)N2C(C(=O)O)=C(S[C@@H]3CN[C@H](C(=O)N(C)C)C3)[C@H](C)[C@H]12 [MEPM, meropenem] as the compound, how does the MIC ([1]; KUB3614 Klebsiella aerogenes Clinical isolate) read?
The MIC was 2 µg/mL (≈ 5.22 µM).

And the MIC ([1]; KUB3615 Klebsiella aerogenes Clinical isolate)?
Its MIC is 0.12 µg/mL (≈ 0.313 µM).

What about the MIC ([2]; A. baumannii strain with AMR gene ADC-25, OXA-23, OXA-66, TEM-ID) of the same compound?
The MIC was 64 µg/mL (≈ 167 µM).

And the MIC ([2]; A. baumannii strain with AMR gene ADC-25, XA-23, OXA-66, strA, strB, sul2, TEM-1D)?
Its MIC is 64 µg/mL (≈ 167 µM).

And the MIC ([2]; A. baumannii strain with AMR gene OXA-23, OXA-69, TEM-1D)?
Its MIC is 16 µg/mL (≈ 41.7 µM).

What about the MIC50 [3] of the same compound?
Its MIC50 is at most 0.125 µg/mL.

What about the MIC90 [3] of the same compound?
The MIC90 was 4 µg/mL (≈ 10.4 µM).

What about the MIC50 [4] of the same compound?
Its MIC50 is 2 µg/mL (≈ 5.22 µM).

And the MIC90 [4]?
The MIC90 was 64 µg/mL (≈ 167 µM).

What about the MIC50 [5] of the same compound?
Its MIC50 is 2 µg/mL (≈ 5.22 µM).

What about the MIC90 [5] of the same compound?
Its MIC90 is 32 µg/mL (≈ 83.4 µM).

And the “reduction in the number of bacteria compared to preculture level” value [6]?
Its value is 3 log10.

What about the Survival rate ([7]; Dose 10 mg/kg) of the same compound?
Its Survival rate is 10%.

What about the Survival rate ([7]; Dose 30 mg/kg) of the same compound?
The Survival rate was 10%.

What about the Survival rate ([7]; Dose 60 mg/kg) of the same compound?
The Survival rate was 10%.

What about the Survival rate ([7]; Dose 100 mg/kg) of the same compound?
The Survival rate was 50%.

What about the “ED50 of MEPM” value ([8]; Acinetobacter baumannii CDC-303 (OXA-23, OXA-66), single s.c. dose, with cilastatin 100 mg/kg) of the same compound?
Its value is at least 300 mg/kg.

What about the ED50 ([8]; read-out: ED50 of MEPM, value estimated by probit analysis, CDC-83 (Serine and metallo), cell prints ND, estimate in brackets, above the highest dose of 300 mg/kg) of the same compound?
Its ED50 is 401 mg/kg.

What about the ED50 ([8]; read-out: ED50 of MEPM, value estimated by probit analysis, CDC-303 (Serine), cell prints ND, estimate in brackets, above the highest dose of 300 mg/kg) of the same compound?
The ED50 was 6550 mg/kg.

And the ED50 ([8]; sc, read-out: ED50 of MEPM)?
Its ED50 is at least 300 mg/kg.

What about the Survival rate ([8]; CDC-83 (Serine and metallo), Dose 30 mg/kg) of the same compound?
Its Survival rate is 0%.

And the Survival rate ([8]; CDC-83 (Serine and metallo), Dose 100 mg/kg)?
The Survival rate was 10%.

What about the Survival rate ([8]; CDC-83 (Serine and metallo), Dose 200 mg/kg) of the same compound?
Its Survival rate is 20%.

What about the Survival rate ([8]; CDC-83 (Serine and metallo), Dose 300 mg/kg) of the same compound?
The Survival rate was 40%.

And the Survival rate ([8]; CDC-303 (Serine), Dose 50 mg/kg)?
The Survival rate was 10%.

What about the Survival rate ([8]; CDC-303 (Serine), Dose 100 mg/kg) of the same compound?
Its Survival rate is 0%.

What about the Survival rate ([8]; CDC-303 (Serine), Dose 200 mg/kg) of the same compound?
The Survival rate was 10%.

What about the Survival rate ([8]; CDC-303 (Serine), Dose 300 mg/kg) of the same compound?
The Survival rate was 20%.

And the MIC ([9]; ATCC25922, pH 5, read-out: MICs of MEPM, E. coli ATCC 25922 (QC strain), CAMHB pH5.0)?
The MIC was 0.12 µg/mL (≈ 0.313 µM).

And the MIC ([9]; ATCC25922, pH 5, read-out: MICs of MEPM, E. coli ATCC 25922 (QC strain), Human urine pH5.0)?
Its MIC is 0.12 µg/mL (≈ 0.313 µM).

And the MIC ([9]; ATCC25922, pH 6, read-out: MICs of MEPM, E. coli ATCC 25922 (QC strain), CAMHB pH6.0)?
The MIC was 0.06 µg/mL (≈ 0.156 µM).

What about the MIC ([9]; ATCC25922, pH 6, read-out: MICs of MEPM, E. coli ATCC 25922 (QC strain), Human urine pH6.0) of the same compound?
Its MIC is 0.03 µg/mL (≈ 0.0782 µM).

What about the MIC ([9]; ATCC25922, pH 7, read-out: MICs of MEPM, E. coli ATCC 25922 (QC strain), Human urine pH7.0) of the same compound?
The MIC was 0.015 µg/mL (≈ 0.0391 µM).

What about the MIC ([9]; ATCC25922, pH 7.2, read-out: MICs of MEPM, E. coli ATCC 25922 (QC strain), Standard condition (CAMHB pH7.2)) of the same compound?
The MIC was 0.03 µg/mL (≈ 0.0782 µM).

And the MIC ([9]; ATCC25922, pH 8, read-out: MICs of MEPM, E. coli ATCC 25922 (QC strain), CAMHB pH8.0)?
The MIC was 0.015 µg/mL (≈ 0.0391 µM).

What about the MIC ([9]; ATCC25922, pH 8, read-out: MICs of MEPM, E. coli ATCC 25922 (QC strain), Human urine pH8.0) of the same compound?
The MIC was 0.015 µg/mL (≈ 0.0391 µM).

What about the MIC ([9]; ATCCBAA2340, pH 5, read-out: MICs of MEPM, E. coli ATCC BAA-2340 (KPC-3), CAMHB pH5.0) of the same compound?
The MIC was 2 µg/mL (≈ 5.22 µM).

What about the MIC ([9]; ATCCBAA2340, pH 5, read-out: MICs of MEPM, E. coli ATCC BAA-2340 (KPC-3), Human urine pH5.0) of the same compound?
The MIC was 1 µg/mL (≈ 2.61 µM).

What about the MIC ([9]; ATCCBAA2340, pH 6, read-out: MICs of MEPM, E. coli ATCC BAA-2340 (KPC-3), CAMHB pH6.0) of the same compound?
Its MIC is 8 µg/mL (≈ 20.9 µM).

What about the MIC ([9]; ATCCBAA2340, pH 6, read-out: MICs of MEPM, E. coli ATCC BAA-2340 (KPC-3), Human urine pH6.0) of the same compound?
The MIC was 1 µg/mL (≈ 2.61 µM).

What about the MIC ([9]; ATCCBAA2340, pH 7, read-out: MICs of MEPM, E. coli ATCC BAA-2340 (KPC-3), Human urine pH7.0) of the same compound?
The MIC was 2 µg/mL (≈ 5.22 µM).

What about the MIC ([9]; ATCCBAA2340, pH 7.2, read-out: MICs of MEPM, E. coli ATCC BAA-2340 (KPC-3), Standard condition (CAMHB pH7.2)) of the same compound?
Its MIC is 8 µg/mL (≈ 20.9 µM).

And the MIC ([9]; ATCCBAA2340, pH 8, read-out: MICs of MEPM, E. coli ATCC BAA-2340 (KPC-3), CAMHB pH8.0)?
The MIC was 4 µg/mL (≈ 10.4 µM).

What about the MIC ([9]; ATCCBAA2340, pH 8, read-out: MICs of MEPM, E. coli ATCC BAA-2340 (KPC-3), Human urine pH8.0) of the same compound?
Its MIC is 8 µg/mL (≈ 20.9 µM).

What about the MIC ([9]; ATCCBAA2469, pH 5, read-out: MICs of MEPM, E. coli ATCC BAA-2469 (NDM-1), CAMHB pH5.0) of the same compound?
The MIC was 0.12 µg/mL (≈ 0.313 µM).

What about the MIC ([9]; ATCCBAA2469, pH 5, read-out: MICs of MEPM, E. coli ATCC BAA-2469 (NDM-1), Human urine pH5.0) of the same compound?
The MIC was 0.12 µg/mL (≈ 0.313 µM).

And the MIC ([9]; ATCCBAA2469, pH 6, read-out: MICs of MEPM, E. coli ATCC BAA-2469 (NDM-1), CAMHB pH6.0)?
Its MIC is 8 µg/mL (≈ 20.9 µM).

And the MIC ([9]; ATCCBAA2469, pH 6, read-out: MICs of MEPM, E. coli ATCC BAA-2469 (NDM-1), Human urine pH6.0)?
The MIC was 0.12 µg/mL (≈ 0.313 µM).

What about the MIC ([9]; ATCCBAA2469, pH 7, read-out: MICs of MEPM, E. coli ATCC BAA-2469 (NDM-1), Human urine pH7.0) of the same compound?
Its MIC is 16 µg/mL (≈ 41.7 µM).

What about the MIC ([9]; ATCCBAA2469, pH 7.2, read-out: MICs of MEPM, E. coli ATCC BAA-2469 (NDM-1), Standard condition (CAMHB pH7.2)) of the same compound?
The MIC was 32 µg/mL (≈ 83.4 µM).

From patent EP4635500A1, “THERAPEUTIC AGENT FOR BACTERIAL INFECTION” (Sumitomo Pharma Co., Ltd., priority 2022, dated 2024)
